In brackets after ≈: the same amount, converted by molar mass. Several values for one entry are separate records, joined by “and”; a condition that tells them apart may be missing. Identical values can stand only once. Counter-ions that a name gives are not always drawn. Like-named read-outs stand apart in the source and are kept apart here. Blank lines part the entries; values can stand above or below the compound they belong to.
How the values were obtained:
[1] = system: Plasmodium berghei NK65 strain; test: Peters 4-day suppressive test in infected BALB/c mice; assay type: in vivo, Plasmodium berghei in BALB/c mice
Method: Adult BALB/c mice (22 ± 3 g weight) were used for the in vivo anti-malarial tests and received water and food ad libitum. In vivo tests were performed using ‘Guidelines for Ethical Conduct in The Care and Use of Animals of the National Institute for Amazon Research (INPA)’.
Limonoids 3 and 4 were assayed for in vivo anti-malarial activity in the Peters 4-day suppressive test against the Plasmodium berghei NK65 strain in BALB/c female mice, each inoculated with 1 × 10^5 parasitized red blood cells. The mice were randomly divided into groups of five individuals and individual […] evaluation of parasitaemia versus controls (negative control groups were treated with 2% DMSO vehicle and positive control groups with chloroquine) on days 5 and 7 following an established procedure. Mortality was monitored in all groups for four weeks after inoculation. Two independent in vivo experiments were performed.

[2] = system: Plasmodium falciparum K1 strain; test: In vitro anti-plasmodial assay (micro test), growth inhibition of P. falciparum K1; assay type: cell-based; settings: for IC50: Plasmodium falciparum, read-out: IC50 Plasmodium falciparum K1; for Result Plasmodium falciparum K1: activity class from IC50, K1 strain
Method: Briefly, this procedure involved preparing 5 mg/mL stock solutions of each compound in dimethyl sulfoxide (DMSO). The stock solutions were diluted to provide test solutions having concentrations in the range 0.13-100 μg/mL. Test solutions were transferred to 96-well test plates containing parasitized red blood cells with initial 2% haematocrit and 1% parasitaemia. Each sample was evaluated in duplicate and the test plate was incubated for 48 h at 37°C. After incubation, quantification of parasites was achieved by optical microscopy on blood smears from each well [27].

[3] = system: MRC-5 human fibroblasts; test: Cytotoxicity assay (AlamarBlue) on MRC-5 human fibroblasts; assay type: cell-based
Method: The MRC-5 cell line of human fibroblasts was grown in Dulbecco’s Modified Eagle’s Medium (DMEM) supplemented with 10% fetal bovine serum, 2 mM glutamine, 100 μg/mL streptomycin and 100 U/mL penicillin, and incubated at 37°C with a 5% atmosphere of CO2. For assays, the cells were plated in 96-well plates (2.5 × 10^4 cells/well) and the AlamarBlue™ assay was performed using a previously described procedure. After incubation for 24 h, compounds 1-5 were individually dissolved in DMSO and the resulting solutions were diluted in culture medium. The resulting dilute solutions of each sample were added to wells at final (well) concentrations of 1.56-100 μg/mL. Control groups had final well concentrations of 0.1% DMSO. The plates were further incubated for 48 h. 3 h before the end of the incubation period, AlamarBlue™ (10 μL) was added to each well. The fluorescent signal was monitored with a multiplate reader using 530-560 nm excitation and 590 nm emission wavelengths.

[4] = system: FCR-3 strain of P. falciparum; design: method as in doi:10.1016/j.tet.2011.12.076; settings: read-out: IC50 against the FCR-3 strain of P. falciparum; cited from earlier work
[5] = system: W2 strain of P. falciparum; settings: cited from earlier work
[6] = system: K1 and FCR-3 strains of P. falciparum; settings: earlier studies; read-out: IC50 against the K1 and FCR-3 strains of P. falciparum; cited from earlier work
[7] = system: W2, D6 and FCR-3 strains of P. falciparum; design: method as in doi:10.1016/j.tet.2011.12.076, PMID 9134742, doi:10.1111/j.1744-7348.2003.tb00279.x; settings: range over strains; read-out: IC50 against W2, D6 and FCR-3 strains of P. falciparum; cited from earlier work
[8] = system: P. berghei strain ANKA; settings: cited from earlier work
[9] = system: P. falciparum D6; design: method as in PMID 9134742; settings: cited from earlier work
[10] = design: method as in PMID 12570769; settings: cited from earlier work
[11] = system: Plasmodium vinckei; design: method as in PMID 23433124; settings: cited from earlier work
[12] = MRC5, MRC-5, 48 h, read-out: IC50 Human fibroblasts MRC-5
[13] = 50 mg/kg/day, vs untreated controls
[14] = 100 mg/kg/day, vs untreated controls

Structure (SMILES): CCN(CC)CCCC(C)Nc1ccnc2cc(Cl)ccc12 (stereo not drawn) [chloroquine diphosphate, reference compound]
- Average survival time ± SD Oral ([1]; 5 mg/kg/day): >40 days
- % Parasite inhibition Oral 5th day ([1]; 5 mg/kg/day): 100%
- % Parasite inhibition Oral 7th day ([1]; 5 mg/kg/day): 98%
- Average survival time ± SD Subcutaneous ([1]; 5 mg/kg/day): >40 days
- % Parasite inhibition Subcutaneous 5th day ([1]; 5 mg/kg/day): 99%
- % Parasite inhibition Subcutaneous 7th day ([1]; 5 mg/kg/day): 99%
- IC50 ([2]; K1, 48 h): 0.33 µM
- Result Plasmodium falciparum K1 [2]: A (0.1 < IC50 ≤ 5 μM = active (A))

Structure (SMILES): CC(=O)O[C@@H]1C2C(C)(C)C(=O)C=C[C@]2(C)C2CC[C@@]3(C)[C@H](c4ccoc4)C(=O)[C@H]4O[C@]43[C@]2(C)[C@@H]1OC(C)=O (stereo partly drawn) [compound 1, 6α-acetoxyepoxyazadiradione]
- IC50 [3, 12]: > 191 µM
- IC50 ([2]; K1 strain, 48 h incubation): 15.4 µM
- Result Plasmodium falciparum K1 [2]: MA (5 < IC50 ≤ 20 μM = moderately active (MA))

- IC50 ([2]; K1 strain, 48 h incubation): 15.3 µM
Structure (SMILES): C=C1[C@@H]([C@@]2(C)C=CC(=O)C(C)(C)[C@@H]2CC(=O)OC)CC[C@@]2(C)[C@H](c3ccoc3)OC(=O)[C@H]3O[C@]132 [compound 2, andirobin]
- IC50 [3, 12]: > 203 µM
- Result Plasmodium falciparum K1 [2]: MA (5 < IC50 ≤ 20 μM = moderately active (MA))

Structure (SMILES): CC(=O)O[C@@H]1C2C(C)(C)C(=O)C=C[C@]2(C)C2CC[C@@]3(C)[C@H](c4ccoc4)OC(=O)[C@H]4O[C@]43[C@]2(C)[C@@H]1OC(C)=O (stereo partly drawn) [compound 3, 6α-acetoxygedunin]
- IC50 [3, 12]: > 185 µM
- Average survival time ± SD Oral ([1]; 50 mg/kg/day): 20 ± 3 days
- % Parasite inhibition Oral 5th day [1, 13]: 40% and 40.2%
- % Parasite inhibition Oral 7th day ([1]; 50 mg/kg/day): 34.7%
- Average survival time ± SD Subcutaneous ([1]; 50 mg/kg/day): 21 ± 2 days
- % Parasite inhibition Subcutaneous 5th day ([1]; 50 mg/kg/day): 34.4%
- % Parasite inhibition Subcutaneous 7th day ([1]; 50 mg/kg/day): 16.8%
- Average survival time ± SD Oral ([1]; 100 mg/kg/day): 24 ± 3 days
- % Parasite inhibition Oral 5th day [1, 14]: 66% and 65.7%
- % Parasite inhibition Oral 7th day ([1]; 100 mg/kg/day): 46.3%
- Average survival time ± SD Subcutaneous ([1]; 100 mg/kg/day): 22 ± 4 days
- % Parasite inhibition Subcutaneous 5th day ([1]; 100 mg/kg/day): 44.2%
- % Parasite inhibition Subcutaneous 7th day ([1]; 100 mg/kg/day): 30.4%
- IC50 ([2]; K1 strain, 48 h incubation): 7 µM
- Result Plasmodium falciparum K1 [2]: MA (5 < IC50 ≤ 20 μM = moderately active (MA))
- IC50 [4]: 2.8 µM

Structure (SMILES): CC1(C)C(=O)C=C[C@@]2(C)C1CC(=O)[C@]1(C)C2CC[C@@]2(C)[C@H](c3ccoc3)OC(=O)[C@H]3O[C@]321 (stereo partly drawn) [compound 4, 7-deacetoxy-7-oxogedunin]
- IC50 ([5]; read-out: IC50 against the W2 strain of P. falciparum): > 22.8 µM
- IC50 ([3]; MRC5, 48 h, read-out: IC50 Human fibroblasts MRC-5): 108 µM
- IC50 ([3]; MRC5, 48 h, read-out: IC50 MRC-5 cells): 47.3 µg/mL
- IC50 [6]: 2.5 to 4.1 µM
- Average survival time ± SD Oral ([1]; 50 mg/kg/day): 20 ± 2 days
- % Parasite inhibition Oral 5th day [1, 13]: 19.3%
- % Parasite inhibition Oral 7th day ([1]; 50 mg/kg/day): 0%
- Average survival time ± SD Subcutaneous ([1]; 50 mg/kg/day): 21 ± 4 days
- % Parasite inhibition Subcutaneous 5th day ([1]; 50 mg/kg/day): 29.2%
- % Parasite inhibition Subcutaneous 7th day ([1]; 50 mg/kg/day): 0%
- Average survival time ± SD Oral ([1]; 100 mg/kg/day): 21 ± 3 days
- % Parasite inhibition Oral 5th day [1, 14]: 40% and 40.3%
- % Parasite inhibition Oral 7th day ([1]; 100 mg/kg/day): 28.9%
- Average survival time ± SD Subcutaneous ([1]; 100 mg/kg/day): 22 ± 2 days
- % Parasite inhibition Subcutaneous 5th day ([1]; 100 mg/kg/day): 38.6%
- % Parasite inhibition Subcutaneous 7th day ([1]; 100 mg/kg/day): 21.7%
- IC50 ([2]; K1, 48 h): 20.7 µM
- Result Plasmodium falciparum K1 [2]: I (IC50 > 20 μM = inactive (I))

- IC50 ([2]; K1 strain, 48 h incubation): 5 µM
Structure (SMILES): CC1(C)C(=O)C=C[C@@]2(C)C1[C@@H](O)[C@@H](O)[C@]1(C)C2CC[C@@]2(C)[C@H](c3ccoc3)OC(=O)[C@H]3O[C@]321 (stereo partly drawn) [compound 5, 6α-hydroxydeacetylgedunin]
- IC50 [3, 12]: > 219 µM
- Result Plasmodium falciparum K1 [2]: A (0.1 < IC50 ≤ 5 μM = active (A))

Structure (SMILES): CC(=O)O[C@@H]1C[C@H]2C(C)(C)C(=O)C=C[C@]2(C)[C@H]2CC[C@@]3(C)[C@H](c4ccoc4)OC(=O)[C@H]4O[C@]43[C@@]21C [compound 6, Gedunin]
- IC50 [7]: 0.4 to 2.5 µM
- suppression of P. berghei in mice ([8]; oral doses of 25 or 100 mg/kg/day): did not suppress

Structure (SMILES): CC(=O)O[C@@H]1C2C(C)(C)C(=O)C=C[C@]2(C)C2CC[C@@]3(C)[C@H](c4ccoc4)OC(=O)[C@H]4O[C@]43[C@]2(C)[C@@H]1O (stereo partly drawn) [compound 7, andirolide H]
- IC50 [4]: 4 µM

Structure (SMILES): CC(=O)O[C@@H]1[C@H](O)C2C(C)(C)C(=O)C=C[C@]2(C)C2CC[C@@]3(C)[C@H](c4ccoc4)OC(=O)[C@H]4O[C@]43[C@@]21C (stereo partly drawn) [compound 8, 6α-hydroxygedunin]
- IC50 [4]: 90 µM

Structure (SMILES): CC1(C)C(=O)C=C[C@@]2(C)C1C[C@@H](O)[C@]1(C)C2CC[C@@]2(C)[C@H](c3ccoc3)OC(=O)[C@H]3O[C@]321 (stereo partly drawn) [compound 9, 7-deacetylgedunin]
- IC50 against W2 [5]: 1.3 µg/mL (≈ 2.95 µM)
- IC50 against D6 ([9]; D6): 2.6 µg/mL (≈ 5.9 µM)
- times less in vitro activity than gedunin ([9]; D6 and W2, compared to gedunin): about 65 times
- stability under physiologic conditions found in mice ([10]; physiologic conditions): unstable
- stability under simulated gastric (low pH) conditions ([10]; simulated gastric (low pH)): low stability

Structure (SMILES): CO[C@@H]1CC2C(C)(C)C(=O)C=C[C@]2(C)C2CC[C@@]3(C)[C@H](c4ccoc4)OC(=O)[C@H]4O[C@]43[C@@]21C (stereo partly drawn) [compound 10, 7-deacetyl-7-O-methylgedunin]
- inhibition of parasitaemia of P. berghei ANKA in mice ([8]; oral, 50 mg/kg/day): 68%

Structure (SMILES): C=C1[C@@H]2CC[C@@]3(C)[C@H](c4ccoc4)OC(=O)C[C@]13O[C@H]1CC(=O)C(C)(C)[C@H](CC(=O)OC)[C@]12C [methyl angolensate]
- IC50 [4]: 12 to 15 µM

Structure (SMILES): C=C[C@H]1C[N@@]2CC[C@H]1C[C@H]2[C@H](O)c1ccnc2ccc(OC)cc12 [quinine sulfate, reference compound]
- IC50 ([2]; K1 strain, 48 h incubation): 0.3 µM
- Result Plasmodium falciparum K1 [2]: A (0.1 < IC50 ≤ 5 μM = active (A))

Structure (SMILES): C=C[C@H]1C[N@@]2CC[C@H]1C[C@H]2[C@H](O)c1ccnc2ccc(OC)cc12 [quinine]
- median effective dose (ED50) ([8]; mice infected with P. berghei strain ANKA): 34 mg/kg/day

Structure (SMILES): C[C@H]1[C@H](OC(=O)CCC(=O)[O-])O[C@@H]2O[C@@]3(C)CC[C@H]4[C@H](C)CC[C@@H]1[C@@]24OO3.[Na+] [sodium artesunate]
- doses at which infected mice exhibit recrudescence [11]: < 80 mg/kg/day
